The IC50 is the concentration at which inhibition is half-maximal.

Experimental findings from US10227331B2 (priority 2015, dated 2019) are described below.

Data set [1] concerns the target IMP-1 (Serratia marcescens, UniProt P52699). Nature of the data set: biochemical. The note with it: CCF2-FA substrate, 2 hours at 25° C; read-out: IMP-1 IC50. In kind it is biochemical. In short, it runs like this: (§1)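 Semi-log dose-response curves, fitted with a 4-parameter model, gave IC50s. The underlying signal was CCF2-FA fluorescence following 2 hours at 25° C with enzyme, substrate and inhibitor combined.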

Data set [2] addresses NDM-1 (Klebsiella pneumoniae, UniProt C7C422). Put plainly: biochemical. In kind it is biochemical. As to conditions: CCF2-FA substrate, 2 hours at 25° C; read-out: NDM-1 IC50. The gist of the method: as §1
In data set [3] the target is VIM-1 (Pseudomonas aeruginosa (strain ATCC 15692 / DSM 22644 / CIP 104116 / JCM 14847 / LMG 12228 / 1C / PRS 101 / PAO1), UniProt A0A0F7KYQ8). Nature of the data set: biochemical. The note with it: CCF2-FA substrate, 2 hours at 25° C. In short, it runs like this:
as §1

Data set [4] concerns Escherichia coli expressing NDM-1 (CLB30005, CLB30016). The class given is cell-based. The note with it: with imipenem 1 μg/ml, 95% inhibition of bacterial growth. In short, it runs like this: (§2)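 Restoration of imipenem susceptibility (1 μg/ml imipenem) was judged by absorbance after 22–24 h at 35° C. Test compound was added to bacteria suspended 1:100 in 1.1× CAMHB from overnight blood-agar cultures.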

In data set [5] the test system is Klebsiella pneumoniae expressing VIM-1 (IHMA599644). In kind it is cell-based. The note with it: with imipenem 1 μg/ml, 95% inhibition of bacterial growth. The gist of the method: as §2
Data set [6] concerns Serratia marcescens expressing IMP-1 (CL5741). In kind it is cell-based. The note with it: with imipenem 1 μg/ml, 95% inhibition of bacterial growth. In short, it runs like this:
as §2

Data set [7] relates to P. aeruginosa expressing IMP-1, efflux+ (MB9798). The class given is cell-based, Pseudomonas aeruginosa. As to conditions: for P. aeruginosa expressing IMP-1, efflux+ (MB9798) MITC95: imipenem at 2 μg/mL, in the presence of a class A, C, D serine β-lactamase inhibitor closely related to relebactam; for Efflux ratio: ratio MITC95 PA_9798/MITC95 PA_9799. An excerpt:
(§3) The strain background is Pseudomonas aeruginosa PAO1.

Data set [8] deals with P. aeruginosa expressing IMP-1, efflux− (MB9799). Nature of the data set: Efflux: concentration of MBL inhibitor which restores susceptibility to imipenem. In kind it is cell-based, Pseudomonas aeruginosa. The note with it: imipenem at 2 μg/mL, in the presence of a class A, C, D serine β-lactamase inhibitor closely related to relebactam.
Source text: as §3

Chain of NDM-1 (C7C422 whole entry, looked up, species assumed): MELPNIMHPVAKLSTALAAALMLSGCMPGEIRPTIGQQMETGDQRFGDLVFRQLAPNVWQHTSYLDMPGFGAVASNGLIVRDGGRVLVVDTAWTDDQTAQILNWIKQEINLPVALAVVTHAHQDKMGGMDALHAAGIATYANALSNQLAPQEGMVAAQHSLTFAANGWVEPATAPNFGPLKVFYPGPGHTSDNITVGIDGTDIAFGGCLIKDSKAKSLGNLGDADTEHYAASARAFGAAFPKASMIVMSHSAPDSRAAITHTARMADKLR
Chain of IMP-1 (P52699 whole entry, looked up, species assumed): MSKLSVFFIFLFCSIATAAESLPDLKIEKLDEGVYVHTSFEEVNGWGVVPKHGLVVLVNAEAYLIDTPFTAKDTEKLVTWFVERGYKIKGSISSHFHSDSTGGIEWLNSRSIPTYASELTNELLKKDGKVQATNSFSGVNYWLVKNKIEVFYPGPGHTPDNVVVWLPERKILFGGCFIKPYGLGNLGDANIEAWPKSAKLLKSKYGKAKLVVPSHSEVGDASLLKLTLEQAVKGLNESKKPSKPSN

For `CS(=O)(=O)c1ccc(-c2ccc(NS(=O)(=O)C3CC3)cc2)c(-c2nn[nH]n2)c1S(N)(=O)=O` [Example 241, 4′-(Cyclopropanesulfonamido)-4-(methylsulfonyl)-2-(2H-tetrazol-5-yl)-[1,1′-biphenyl]-3-sulfonamide], the IC50 was determined as 44.4 pM in data set [1], 658 pM in data set [2] and 86.8 pM in data set [3]. In addition, the “Escherichia coli expressing NDM-1 (CLB30016) MITC95” value in data set [4] was found to be 6.25 µM. The “Klebsiella pneumoniae expressing VIM-1 (IHMA599644) MITC95” value in data set [5] was found to be 12.5 µM. The “Serratia marcescens expressing IMP-1 (CL5741) MITC95” value in data set [6] stood at 3.125 µM. Also, in data set [7], the “P. aeruginosa expressing IMP-1, efflux+ (MB9798) MITC95” value came to 12.5 µM. Besides, the Efflux ratio in data set [7] was found to be 8.00. The “P. aeruginosa expressing IMP-1, efflux− (MB9799) MITC95” value in data set [8] is 1.563 µM.
For the compound `Cc1nnc2ccc(-c3ccc(S(=O)(=O)CCN)c(S(N)(=O)=O)c3-c3nnn[nH]3)cn12.O=C(O)C(F)(F)F` [Example 133, 2-((4-(3-methyl-[1,2,4]triazolo[4,3-a]pyridin-6-yl)-2-sulfamoyl-3-(1H-tetrazol-5-yl)phenyl)sulfonyl)ethanaminium 2,2,2-trifluoroacetate], the IC50 in data set [1] is 29400 pM; in data set [2], 15600 pM; in data set [3], 968 pM. Also, the “Escherichia coli expressing NDM-1 (CLB30016) MITC95” value in data set [4] was 6.25 µM. Further, in data set [5], the “Klebsiella pneumoniae expressing VIM-1 (IHMA599644) MITC95” value is 6.25 µM. Besides, in data set [6], the “Serratia marcescens expressing IMP-1 (CL5741) MITC95” value worked out at 6.25 µM. The “P. aeruginosa expressing IMP-1, efflux+ (MB9798) MITC95” value in data set [7] amounted to 200 µM. Besides, in data set [7], the Efflux ratio is listed as 64.00. For the same compound, in data set [8], the “P. aeruginosa expressing IMP-1, efflux− (MB9799) MITC95” value turned out to be 3.125 µM.
Consider `CCOC(=O)N1CCC(S(=O)(=O)c2ccc(-c3cccc4nc(N)[nH]c34)c(-c3nn[nH]n3)c2S(N)(=O)=O)CC1` [Example 46, ethyl 4-(4-(2-amino-3H-benzo[d]imidazol-4-yl)-2-sulfamoyl-3-(2H-tetrazol-5-yl)phenylsulfonyl)piperidine-1-carboxylate], for which the IC50 in data set [1] turned out to be 2150 pM; in data set [2] it was 445 pM; in data set [3], 378 pM. The “Escherichia coli expressing NDM-1 (CLB30016) MITC95” value in data set [4] stood at 6.25 µM. In addition, in data set [5], the “Klebsiella pneumoniae expressing VIM-1 (IHMA599644) MITC95” value worked out at 25 µM. The “Serratia marcescens expressing IMP-1 (CL5741) MITC95” value in data set [6] was determined as 25 µM. The “P. aeruginosa expressing IMP-1, efflux+ (MB9798) MITC95” value in data set [7] came out at 200 µM. For the same compound, the Efflux ratio in data set [7] is 64.00. In data set [8], the “P. aeruginosa expressing IMP-1, efflux− (MB9799) MITC95” value was 3.125 µM.
In the case of `Cc1ccc(-c2ccc(S(=O)(=O)C3CNC3)c(S(N)(=O)=O)c2-c2nn[nH]n2)c2sc(N)nc12` [Example 33, 3-(2-amino-4-methylbenzo[d]thiazol-7-yl)-6-(azetidin-3-ylsulfonyl)-2-(2H-tetrazol-5-yl)benzenesulfonamide], the results for the IC50 in data set [1], in data set [2] and in data set [3] were 296 pM, 23.9 pM and 120 pM, respectively. Further, in data set [4], the “Escherichia coli expressing NDM-1 (CLB30016) MITC95” value amounted to 1.563 µM. In addition, the “Klebsiella pneumoniae expressing VIM-1 (IHMA599644) MITC95” value in data set [5] worked out at 3.125 µM. In addition, the “Serratia marcescens expressing IMP-1 (CL5741) MITC95” value in data set [6] is 1.563 µM. Further, the “P. aeruginosa expressing IMP-1, efflux+ (MB9798) MITC95” value in data set [7] was determined as 3.125 µM. In addition, the Efflux ratio in data set [7] is 2.00. The “P. aeruginosa expressing IMP-1, efflux− (MB9799) MITC95” value in data set [8] came to 1.563 µM.
As to `NCCS(=O)(=O)c1ccc(-c2cccc3nc(N)sc23)c(-c2nn[nH]n2)c1S(N)(=O)=O` [Example 78, 3-(2-aminobenzo[d]thiazol-7-yl)-6-(2-aminoethylsulfonyl)-2-(2H-tetrazol-5-yl)benzenesulfonamide], the half-maximal inhibitory concentration (IC50) was determined as 441 pM in data set [1], 57.6 pM in data set [2] and 136 pM in data set [3]. Further, the “Escherichia coli expressing NDM-1 (CLB30016) MITC95” value in data set [4] was 0.7813 µM. Besides, the “Klebsiella pneumoniae expressing VIM-1 (IHMA599644) MITC95” value in data set [5] was found to be 2.344 µM. For the same compound, in data set [6], the “Serratia marcescens expressing IMP-1 (CL5741) MITC95” value came to 1.172 µM. The “P. aeruginosa expressing IMP-1, efflux+ (MB9798) MITC95” value in data set [7] came to 1.172 µM. In data set [7], the Efflux ratio was found to be 1.50. The “P. aeruginosa expressing IMP-1, efflux− (MB9799) MITC95” value in data set [8] amounted to 0.7813 µM.
Turning to `Nc1cn2cccc(-c3ccc(S(=O)(=O)C4CNC4)c(S(N)(=O)=O)c3-c3nnn[nH]3)c2n1` [Example 65, 3-(2-Aminoimidazo[1,2-a]pyridin-8-yl)-6-(azetidin-3-ylsulfonyl)-2-(H-tetraazol-5-yl)benzenesulfonamide], the half-inhibitory concentration (IC50) is 2500 pM in data set [1], 784 pM in data set [2] and 627 pM in data set [3]. For the same compound, the “Escherichia coli expressing NDM-1 (CLB30016) MITC95” value in data set [4] is 1.563 µM. Besides, the “Klebsiella pneumoniae expressing VIM-1 (IHMA599644) MITC95” value in data set [5] stood at 12.5 µM. In addition, in data set [6], the “Serratia marcescens expressing IMP-1 (CL5741) MITC95” value came out at 6.25 µM. Besides, in data set [7], the “P. aeruginosa expressing IMP-1, efflux+ (MB9798) MITC95” value is 25 µM. Also, in data set [7], the Efflux ratio is listed as 4.00. In addition, in data set [8], the “P. aeruginosa expressing IMP-1, efflux− (MB9799) MITC95” value worked out at 6.25 µM.
As for `CS(=O)(=O)N1CC(S(=O)(=O)c2ccc(-c3cccc4[nH]c(N)nc34)c(-c3nn[nH]n3)c2S(N)(=O)=O)C1` [Example 55, 3-(2-amino-1H-benzo[d]imidazol-4-yl)-6-(1-(methylsulfonyl)azetidin-3-ylsulfonyl)-2-(2H-tetrazol-5-yl)benzenesulfonamide], the IC50 in data set [1] worked out at 1420 pM; in data set [2] it was 81.8 pM; in data set [3] it was 312 pM. In addition, the “Escherichia coli expressing NDM-1 (CLB30016) MITC95” value in data set [4] worked out at 3.125 µM. Besides, the “Klebsiella pneumoniae expressing VIM-1 (IHMA599644) MITC95” value in data set [5] came to 6.25 µM. The “Serratia marcescens expressing IMP-1 (CL5741) MITC95” value in data set [6] was found to be 3.125 µM. The “P. aeruginosa expressing IMP-1, efflux+ (MB9798) MITC95” value in data set [7] amounted to 50 µM. In addition, in data set [7], the Efflux ratio is on record as 31.99. The “P. aeruginosa expressing IMP-1, efflux− (MB9799) MITC95” value in data set [8] stood at 1.563 µM.
Take `Nc1nc2c(-c3ccc(S(=O)(=O)[C@@H]4CN[C@H](CO)C4)c(S(N)(=O)=O)c3-c3nn[nH]n3)cccc2[nH]1` [Example 350, 3-(2-Amino-1H-benzo[d]imidazol-4-yl)-6-(((3S,5S)-5-(hydroxymethyl)pyrrolidin-3-yl)sulfonyl)-2-(2H-tetrazol-5-yl)benzenesulfonamide]: the IC50 in data set [1] came to 982 pM; in data set [2], 250 pM; in data set [3] it was 674 pM. Also, the “Escherichia coli MITC95” value in data set [4] (NDM-1 (CLB30016)) was found to be 0.7813 µM. Further, the “Klebsiella pneumoniae MITC95” value in data set [5] (VIM-1 (IHMA599644)) worked out at 3.125 µM. Also, the “Serratia marcescens MITC95” value in data set [6] (IMP-1 (CL5741)) is 1.563 µM. The “P. aeruginosa expressing IMP-1, efflux+ (MB9798) MITC95” value in data set [7] came to 1.563 µM. Also, the Efflux ratio in data set [7] was determined as 1.00. In addition, the “P. aeruginosa expressing IMP-1, efflux− (MB9799) MITC95” value in data set [8] turned out to be 1.563 µM.
Turning to `Nc1nc2cccc(-c3ccc(S(=O)(=O)[C@H]4C[C@H](N)C4)c(S(N)(=O)=O)c3-c3nn[nH]n3)c2[nH]1` [Example 175, 3-(2-amino-3H-benzo[d]imidazol-4-yl)-6-((1r,3r)-3-aminocyclobutylsulfonyl)-2-(2H-tetrazol-5-yl)benzenesulfonamide], the 50% inhibitory concentration (IC50) came out at 2200 pM in data set [1], 149 pM in data set [2] and 478 pM in data set [3]. The “Escherichia coli expressing NDM-1 (CLB30016) MITC95” value in data set [4] came to 0.7813 µM. Also, the “Klebsiella pneumoniae expressing VIM-1 (IHMA599644) MITC95” value in data set [5] turned out to be 1.563 µM. The “Serratia marcescens expressing IMP-1 (CL5741) MITC95” value in data set [6] is 1.563 µM. In addition, in data set [7], the “P. aeruginosa expressing IMP-1, efflux+ (MB9798) MITC95” value stood at 0.7813 µM. Besides, the Efflux ratio in data set [7] worked out at 1.00. In addition, in data set [8], the “P. aeruginosa expressing IMP-1, efflux− (MB9799) MITC95” value is 0.7813 µM.
